Source: PubChem BioAssay (NCI)
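Five concentrations, 48 hours, 96-well plates. TGI marks complete inhibition of growth.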

Key:
Assay in all cases: NCI tumour cell line growth inhibition, 48 h
MDA-MB-231 breast = tested on: MDA-MB-231 breast
NCI/ADR-RES ovarian = tested on: NCI/ADR-RES ovarian
HOP-62 NSCLC = tested on: HOP-62 NSCLC
MALME-3M melanoma = tested on: MALME-3M melanoma
OVCAR-3 ovarian = tested on: OVCAR-3 ovarian
HCC-2998 colon = tested on: HCC-2998 colon
K-562 leukemia = tested on: K-562 leukemia
M14 melanoma = tested on: M14 melanoma
MCF7 breast = tested on: MCF7 breast
SF-539 CNS = tested on: SF-539 CNS

| SMILES | TGI (MDA-MB-231 breast) [µM] | TGI (NCI/ADR-RES ovarian) [µM] | TGI (HOP-62 NSCLC) [µM] | TGI (MALME-3M melanoma) [µM] | TGI (OVCAR-3 ovarian) [µM] | TGI (HCC-2998 colon) [µM] | TGI (K-562 leukemia) [µM] | TGI (M14 melanoma) [µM] | TGI (MCF7 breast) [µM] | TGI (SF-539 CNS) [µM] |
| --- | --- | --- | --- | --- | --- | --- | --- | --- | --- | --- |
| O=c1[nH]c(NCCCCCO)nc2nc[nH]c12 | > 100 | > 100 | > 100 | > 100 | > 100 | > 100 | > 100 | > 100 |  |  |
| CC1=NN(C(=O)CC(=O)Nc2cccc(C)c2)C(=O)C1N=Nc1ccc(C(=O)O)cc1 (centres undefined) | > 100 | > 100 | > 100 | > 100 | > 100 | > 100 | > 100 | > 100 | > 100 | > 100 |
| N=C(N)c1ccc(N=Nc2c(O)c(C(=O)Nc3ccccc3)cc3ccccc23)cc1 | 22.4 | > 100 | 41 | 97.3 | > 53.3 | > 59.7 | > 80.4 | > 100 | 41.7 | 43 |
| N#Cc1cc2c(n(C3OC(CO)C(O)C(O)C3O)c1=S)CCC2 (centres undefined) | > 100 | > 100 | > 100 | > 100 | > 100 | > 100 | > 100 | > 100 | > 100 | > 100 |
| CC1=NN(c2cc(Cl)c(S(=O)(=O)O)cc2Cl)C2(C1)C(Cl)C(=O)N2c1nc2ccccc2s1 (centres undefined) | > 100 | > 100 |  | > 100 |  | > 100 | > 100 | > 100 | > 100 | > 100 |
| Clc1ccc(-c2nn3c(COc4ccc(OCc5nnc6sc(-c7ccc(Cl)cc7)nn56)c(Cl)c4)nnc3s2)cc1 | > 100 | > 100 | 77.7 | > 100 | > 100 | 44.9 | > 100 | > 100 | > 100 | > 100 |
| C/C(=C\C(=O)O)C(=O)N(C)c1ccccc1I | > 100 | > 100 | > 100 | > 100 | > 100 | > 100 | > 100 | > 100 | > 100 |  |
| CN(C)CCCNC(=O)N/N=C/c1ccccn1 | > 10 | > 10 | > 10 | > 10 |  | > 10 | > 10 | > 10 | > 10 | > 10 |
| COc1cc2ccc(C(C)NCC#N)cc2cc1OC (centres undefined) | > 100 | > 100 | > 100 | > 100 | > 100 | > 100 | > 100 | > 100 | > 100 | > 100 |
| Fc1cccc(C2ON=C(c3ccccc3)N2C23CC4CC(CC(C4)C2)C3)c1 (centres undefined) | > 10 | > 10 | > 10 | > 10 | > 10 | > 10 | > 10 | > 10 | > 10 | > 10 |
| Cc1cc(C)n(C(=CC(=O)C(Cl)Cl)n2nc(C)cc2C)n1 | 12.3 | 10.7 | 17.5 | 15.7 | 16.1 |  | 7.42 | 13.3 | > 100 | 14.1 |
| FC(F)(Sc1ncccn1)c1nc2ccccc2o1 | > 100 | > 100 | > 100 | > 100 | > 100 | > 100 | > 100 | > 100 | > 100 | > 100 |
| CC1(O)CC23CC(O)C4(O)C(CC(O)C4(C)C)C(C)(O)C2CCC1C3O (centres undefined) | > 100 | > 100 |  | > 100 |  | > 100 | > 100 | > 100 | > 100 | > 100 |
| COc1cc(-c2cc(OC)c(OC)c3ccc(Br)cc23)c2cc(Br)ccc2c1OC | 49.5 | 90.1 | 44.7 | 52.9 | 46.5 | 92 | 77.8 | 44.7 | 85.7 | 38.8 |
| Cc1c(-c2ccccc2)oc(=O)c2ccccc12 | 36.5 | 75.4 | 43.5 | 52.8 | 41.8 | 37.8 | > 100 | 51.2 | > 100 | 36.2 |
| O=c1c2ccccc2n2nnc3ccc(NCCNCCO)c1c32 | 8.18 | 5.96 | 8.91 | 7.84 | 5.81 | 3.74 | 21.7 | 5.2 | 14.9 | 14.6 |
| N#CC(C#N)=C/C=C/c1ccccc1[N+](=O)[O-] | 7.01 | 4.84 | > 10 | > 10 | > 10 | > 10 | > 10 |  | > 10 | > 10 |
| COc1ccccc1-c1cc(=O)c2cccnc2[nH]1 | > 100 | > 100 | > 100 | > 100 | > 100 | > 100 | > 100 | > 100 | > 100 | > 100 |
| Nc1ncnc2c1ncn2C1C(O)C=C(CO)C1O (centres undefined) |  | > 625 | > 625 | > 625 | > 625 | > 625 |  |  | > 625 | > 625 |
| CCCCCCCCCCCCCCCCOC[C@H](COC(c1ccccc1)(c1ccccc1)c1ccccc1)O[P+](=S)OC (some centres undefined) | > 100 | > 100 |  |  | > 100 |  | > 100 | > 100 | > 100 | > 100 |
| CCOC(=O)/C(=C/c1cn(C(C)=O)c2ccccc12)P(=O)(OC)OC | > 100 | > 100 | > 100 |  | 64.8 |  | > 100 | > 100 | > 100 |  |
| Clc1ccc(C2=CC(c3ccccc3)N3C(=N[C@H]4CCCC[C@@H]43)N2)cc1 (some centres undefined) | 22.1 | 19.6 |  | 14.5 | 19.3 | 5.08 | > 100 | 10.5 | 13.2 | 19.6 |
| c1csc(-c2cc(-c3ccsc3)cs2)c1 | > 100 | > 100 | > 100 |  | > 100 | > 100 | > 100 | > 100 | > 100 | > 100 |

| SMILES | TGI (MDA-MB-231 breast) [µM] | TGI (NCI/ADR-RES ovarian) [µM] | TGI (HOP-62 NSCLC) [µM] | TGI (MALME-3M melanoma) [µM] | TGI (OVCAR-3 ovarian) [µM] | TGI (HCC-2998 colon) [µM] | TGI (K-562 leukemia) [µM] | TGI (M14 melanoma) [µM] | TGI (MCF7 breast) [µM] | TGI (SF-539 CNS) [µM] |
| --- | --- | --- | --- | --- | --- | --- | --- | --- | --- | --- |
| CN(CC(=O)O)c1ncc2c(n1)-c1ccccc1CC2 | > 100 | > 100 | > 100 | > 100 | > 100 |  | > 100 | > 100 | > 100 | > 100 |
| O=[N+]([O-])/C=C/c1cn(CCCCCCCCn2cc(/C=C/[N+](=O)[O-])c3ccccc32)c2ccccc12 | > 10 | > 10 | > 10 | > 10 | > 10 | > 10 | > 10 | > 10 |  | > 10 |
| COc1ccc(C=C2C(C)=NN(c3cccc(Cl)c3)C23C(Cl)C(=O)N3c2nc3ccccc3s2)cc1 (centres undefined) | 51.5 | 85.7 | 44.4 |  | 42.9 | 7.42 | > 100 | 44.5 | 61.4 | > 100 |
| CC(C)(C)[C@H]1NC(=O)CN1C(=O)OCc1ccccc1 | > 100 | > 100 | > 100 | > 100 |  | > 100 | > 100 | > 100 | > 100 | > 100 |
| CCn1c(-c2cc3ccccc3cc2OC(C)=O)n[nH]c1=S | 80.4 | 60.9 | > 100 |  | 67.8 | 38.5 | 33.1 | > 100 | > 100 | > 100 |
| CCOC(=O)CC1(N)CC2c3ccccc3OC(=O)C2C(=O)N1 (centres undefined) | > 100 | > 100 | > 100 | > 100 | > 100 | > 100 | > 100 | > 100 |  |  |
| O=C(Nc1nnc(-c2ccccc2)o1)C(SC(=S)N1CCCC1)c1ccccc1 (centres undefined) | > 100 | 60.1 | > 100 | > 100 | 74.4 |  | > 100 | > 100 | > 100 | 91.8 |
| CCOC(=O)CSc1nc(-c2ccc(Cl)cc2)c(C#N)c(=O)[nH]1 | > 100 | > 100 | > 100 |  | > 100 | > 100 | > 100 | > 100 | > 100 | > 100 |
| c1ccc(CN2CCC(CNc3ncnc4ccccc34)C2)cc1 (centres undefined) | > 100 | > 100 | > 100 | 43 | > 100 |  | > 100 | 35.4 | > 100 | > 100 |
| CC1CC(C)(C)CC(OCCN2CCCCC2)(c2ccccc2)C1 (centres undefined) | 24.9 | 33.9 | 26.5 | 23.4 | 22.5 |  | 28.7 | 14.4 | 26.4 | 29.4 |
| Cc1c(C)c2c(c(N)c1C#N)C(=O)N(NC(=S)Nc1ccccc1)C2=O | > 100 | > 100 |  | > 100 | > 100 | > 100 | > 100 | > 100 | > 100 | > 100 |
| O=C(O)C1C2OC(C(Br)C2Br)C1C(=O)O (centres undefined) | > 100 | > 100 | > 100 | > 100 | > 100 |  | > 100 | > 100 | > 100 | > 100 |
| COc1cc2c(cc1OCCN1CCN(CCOc3cc4c(cc3OC)C(=O)N3CCC[C@H]3C=N4)CC1)N=C[C@@H]1CCCN1C2=O | 54.5 | > 100 | > 100 | 38.4 | 66.8 |  | > 60.5 | > 83.6 | > 100 | > 64.3 |
| C=C(C)C1CCC2(C)C1CCC1(C)C2CCC2C3(C)C4OC(OC4=O)C(C)(C)C3CCC21C (centres undefined) | > 100 | > 100 | > 100 |  | > 100 | > 100 | > 100 | > 100 | > 100 | > 100 |
| O=c1[nH]c2ccccc2c(=O)n1/N=C\c1ccccc1O | > 100 |  | > 100 |  | > 100 |  | > 100 | > 100 | > 100 | > 100 |
| O=c1ccc(=O)c2c1c1[nH]c3ccccc3c1c1c(=O)c3ccccc3c(=O)c21 | > 10 | > 10 | > 10 | > 10 | > 10 | > 10 | > 10 | > 10 |  | > 10 |
| CCOC(=O)CCC(C(=O)OCC)n1nnc2cc(Nc3c(C)[n+]([O-])c4cc(Cl)ccc4[n+]3[O-])ccc21 (centres undefined) |  | > 100 | > 100 | > 100 | > 100 |  | > 100 | > 100 | 80 | > 100 |
| CC1OC23CCCCC2C(C#N)(C#N)C1(C#N)C(=N)O3 (centres undefined) | 32.1 | > 100 |  | 43.5 | 36.5 | 50.1 | > 100 | 40.3 | 52.3 | 45.1 |
| CCOC(=O)CC1C(C(=O)OCC)=Cn2c([nH]c3cccc4cccc2c43)=C1C(=O)OCC (centres undefined) |  | > 100 | > 100 |  | > 100 | > 100 | > 100 | > 100 | > 100 |  |
| Nc1c(-c2ccccc2)c2ccc([N+](=O)[O-])cc2c(=O)n1-c1cccc(C(=O)O)c1 | > 100 | > 100 | > 100 |  | > 100 | > 100 | > 100 | > 100 | > 100 | > 100 |
| CCOC(=O)/C=C(/OCC)[C@@H]1C(C(=O)c2ccc(Cl)cc2)[C@@H]1/C(=C\C(=O)OCC)OCC (some centres undefined) | > 100 | > 34 | > 100 | > 100 | > 100 |  | > 22.3 | > 100 | > 100 | > 100 |
| C[C@]12CC[C@H]3[C@@H](CCC4=C/C(=N/OCCN5CCCCC5)CC[C@@]43C)[C@@H]1CC[C@@H]2O | 50.6 | 54.4 | 29.1 | 33.7 | 32 | 27.4 | 7.25 | 23.8 | 26.8 |  |
| Cc1cc(S(=O)(=O)NC2=NCc3c(F)cccc3N2)c(S)cc1Cl | > 100 | > 100 |  | > 100 | > 100 | > 100 |  | > 100 | > 100 | > 100 |
